Measured values as given in PubChem BioAssay AID248 (DTP/NCI, 2004).
Several values for one entry are separate records, joined by “and”; a condition that tells them apart may be missing. Equal values may be shown once. Toxic doses and inconclusive results are not listed. Rule as the data show it: active = T/C of 150% or more; inactive = T/C below 125%.

System: L1210 leukemia ip in BDF1 mice, survival T/C
Experiment: NCI In Vivo Anticancer Drug Screen. Data for tumor model L1210 Leukemia (intraperitoneal) in B6D2F1 (BDF1) mice
Conditions: endpoint: mean survival time, higher = longer survival
How it was run: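 Antitumor effect is assessed in tumor-bearing animals. Survival in the compound arm is compared with a vehicle-dosed control arm and expressed as their quotient.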

[1] = dose: 100.0 mg/kg/injection, schedule: Q01DX001 (ip), vehicle: saline
[2] = dose: 100.0 mg/kg/injection, schedule: Q01DX001 (ip), vehicle: Klucel (hydroxypropylcellulose) (HPC)
[3] = dose: 100.0 mg/kg/injection, schedule: Q04DX003 (ip), vehicle: Klucel (hydroxypropylcellulose) (HPC)
[4] = dose: 200.0 mg/kg/injection, schedule: Q01DX001 (ip), vehicle: Klucel (hydroxypropylcellulose) (HPC)
[5] = dose: 200.0 mg/kg/injection, schedule: Q04DX003 (ip), vehicle: Klucel (hydroxypropylcellulose) (HPC)
[6] = dose: 400.0 mg/kg/injection, schedule: Q01DX001 (ip), vehicle: Klucel (hydroxypropylcellulose) (HPC)
[7] = dose: 400.0 mg/kg/injection, schedule: Q04DX003 (ip), vehicle: Klucel (hydroxypropylcellulose) (HPC)
[8] = dose: 100.0 mg/kg/injection, schedule: Q04DX003 (ip), vehicle: saline with Tween-80
[9] = dose: 200.0 mg/kg/injection, schedule: Q04DX003 (ip), vehicle: saline with Tween-80
[10] = dose: 400.0 mg/kg/injection, schedule: Q04DX003 (ip), vehicle: saline with Tween-80
[11] = dose: 200.0 mg/kg/injection, schedule: Q01DX001 (ip), vehicle: saline
[12] = dose: 100.0 mg/kg/injection, schedule: Q01DX009 (ip), vehicle: saline with Tween-80
[13] = dose: 200.0 mg/kg/injection, schedule: Q01DX009 (ip), vehicle: saline with Tween-80
[14] = dose: 400.0 mg/kg/injection, schedule: Q01DX009 (ip), vehicle: saline with Tween-80
[15] = dose: 400.0 mg/kg/injection, schedule: Q01DX001 (ip), vehicle: saline
[16] = dose: 25.0 mg/kg/injection, schedule: Q01DX009 (ip), vehicle: saline with Tween-80
[17] = dose: 50.0 mg/kg/injection, schedule: Q01DX009 (ip), vehicle: saline with Tween-80
[18] = dose: 100.0 mg/kg/injection, schedule: Q04DX003 (ip), vehicle: saline
[19] = dose: 200.0 mg/kg/injection, schedule: Q04DX003 (ip), vehicle: saline
[20] = dose: 400.0 mg/kg/injection, schedule: Q04DX003 (ip), vehicle: saline

Measured: T/C

NNc1ncnc2c1ccn2C1OC(CO)C(O)C1O (configuration not stated)
inactive: dose: 5.0 mg/kg/injection, schedule: Q01DX001 (ip), vehicle: saline 110 % of control | dose: 10.0 mg/kg/injection, schedule: Q01DX001 (ip), vehicle: saline 110 % of control | dose: 20.0 mg/kg/injection, schedule: Q01DX001 (ip), vehicle: saline 121 % of control | dose: 35.0 mg/kg/injection, schedule: Q01DX001 (ip), vehicle: saline 108 % of control | dose: 40.0 mg/kg/injection, schedule: Q01DX001 (ip), vehicle: saline 115 % of control | dose: 53.0 mg/kg/injection, schedule: Q01DX001 (ip), vehicle: saline 114 % of control | dose: 80.0 mg/kg/injection, schedule: Q01DX001 (ip), vehicle: saline 114 % of control | [1] 119 % of control

COc1ccc(C23CCCC(=O)C2C2C(=O)CCCC23c2ccc(OC)cc2)cc1 (configuration not stated)
inactive: [2] 100 % of control | [3] 100 % of control | [4] 97 % of control | [5] 101 % of control | [6] 100 % of control | [7] 95 % of control

O=c1[nH]cnc2c1cnn2C1OC(CO)C(O)C1O (configuration not stated)
inactive: dose: 12.5 mg/kg/injection, schedule: Q01DX005 (ip), vehicle: water 92 % of control | dose: 25.0 mg/kg/injection, schedule: Q01DX005 (ip), vehicle: water 106 % of control | dose: 50.0 mg/kg/injection, schedule: Q01DX005 (ip), vehicle: water 97 % of control | dose: 100.0 mg/kg/injection, schedule: Q01DX005 (ip), vehicle: water 108 % of control | dose: 200.0 mg/kg/injection, schedule: Q01DX005 (ip), vehicle: water 93 % of control

CCCCCCC(=O)CCC(=O)CCCCCCCC(=O)O
inactive: dose: 50.0 mg/kg/injection, schedule: Q01DX001 (ip), vehicle: Klucel (hydroxypropylcellulose) (HPC) 103 % of control | [2] 89 % of control | [4] 100 % of control

O=C(/C=C\c1ccccc1Cl)c1ccccc1
inactive: dose: 100.0 mg/kg/injection, schedule: Q04DX002 (ip), vehicle: gum acacia 98 % of control | dose: 200.0 mg/kg/injection, schedule: Q04DX002 (ip), vehicle: gum acacia 95 % of control | dose: 400.0 mg/kg/injection, schedule: Q04DX002 (ip), vehicle: gum acacia 113 % of control

O=c1c(N=Nc2ccc(Br)cc2)c(O)n(-c2ccc(Br)cc2)c(=S)n1-c1ccccc1
inactive: dose: 37.5 mg/kg/injection, schedule: Q01DX001 (ip), vehicle: Klucel (hydroxypropylcellulose) (HPC) 108 % of control | dose: 75.0 mg/kg/injection, schedule: Q01DX001 (ip), vehicle: Klucel (hydroxypropylcellulose) (HPC) 110 % of control | dose: 150.0 mg/kg/injection, schedule: Q01DX001 (ip), vehicle: Klucel (hydroxypropylcellulose) (HPC) 102 % of control

O=S(=O)(c1ccc(Br)cc1)c1ccc(Br)cc1
inactive: [8] 98 % of control | [9] 98 % of control | [10] 104 % of control

Nc1ccc(N=Nc2ccc(O)cc2)c(N)n1
inactive: [1] 92 % of control | [11] 107 % of control

c1cc(OC2CCCCO2)ccc1OC1CCCCO1 (configuration not stated)
inactive: [12] 98 % of control | [8] 95 % of control | [13] 97 % of control | [9] 93 % of control | [14] 97 % of control | [10] 95 % of control

CCOC(=O)c1ccccc1NC(c1ccccc1)c1ccc2cccnc2c1O (configuration not stated)
inactive: [1] 101 % of control | [11] 97 % of control | [15] 91 % of control

CCOC(=O)NNC(=O)OCC
inactive: dose: 12.5 mg/kg/injection, schedule: Q01DX009 (ip), vehicle: saline with Tween-80 100 % of control | [16] 97 % of control | dose: 25.0 mg/kg/injection, schedule: Q04DX003 (ip), vehicle: Klucel (hydroxypropylcellulose) (HPC) 97 % of control | [17] 96 % of control and 86 % of control | dose: 50.0 mg/kg/injection, schedule: Q04DX003 (ip), vehicle: Klucel (hydroxypropylcellulose) (HPC) 98 % of control | dose: 75.0 mg/kg/injection, schedule: Q01DX001 (ip), vehicle: acetone 97 % of control | [12] 92 % of control | [3] 91 % of control | dose: 150.0 mg/kg/injection, schedule: Q01DX001 (ip), vehicle: acetone 108 % of control

c1ccc(C2=NCC3(CCCC3)N=C2c2ccccc2)cc1
inactive: dose: 100.0 mg/kg/injection, schedule: Q01DX009 (ip), vehicle: saline 101 % of control | [18] 97 % of control | dose: 200.0 mg/kg/injection, schedule: Q01DX009 (ip), vehicle: saline 91 % of control | [19] 90 % of control | dose: 400.0 mg/kg/injection, schedule: Q01DX009 (ip), vehicle: saline 100 % of control | [20] 92 % of control

CCOC(=O)C(CC(C)C)NP(=O)(CCl)N(CCCl)CCCl (configuration not stated)
inactive: dose: 25.0 mg/kg/injection, schedule: Q01DX015 (ip), vehicle: other 102 % of control | dose: 50.0 mg/kg/injection, schedule: Q01DX015 (ip), vehicle: other 104 % of control | [1] 104 % of control | dose: 100.0 mg/kg/injection, schedule: Q01DX015 (ip), vehicle: other 102 % of control | [18] 95 % of control | [11] 104 % of control | dose: 200.0 mg/kg/injection, schedule: Q01DX015 (ip), vehicle: other 102 % of control | [19] 95 % of control | [15] 106 % of control | [20] 91 % of control

COc1cc2c(cc1OC)C(=O)N(C)CC2
inactive: dose: 100.0 mg/kg/injection, schedule: Q01DX009 (ip), vehicle: water 95 % of control | dose: 100.0 mg/kg/injection, schedule: Q04DX003 (ip), vehicle: water 97 % of control | dose: 200.0 mg/kg/injection, schedule: Q01DX009 (ip), vehicle: water 102 % of control | dose: 200.0 mg/kg/injection, schedule: Q04DX003 (ip), vehicle: water 97 % of control | dose: 400.0 mg/kg/injection, schedule: Q04DX003 (ip), vehicle: water 100 % of control

Cc1cc(C)[s+]s1
inactive: dose: 12.5 mg/kg/injection, schedule: Q01DX009 (ip), vehicle: saline 94 % of control | dose: 25.0 mg/kg/injection, schedule: Q01DX009 (ip), vehicle: saline 100 % of control | dose: 50.0 mg/kg/injection, schedule: Q01DX009 (ip), vehicle: saline 103 % of control and 91 % of control | [18] 106 % of control | [19] 97 % of control

O=C(O)c1ccc(NCCO)cc1
inactive: dose: 75.0 mg/kg/injection, schedule: Q01DX009 (ip), vehicle: Klucel (hydroxypropylcellulose) (HPC) 102 % of control | dose: 150.0 mg/kg/injection, schedule: Q01DX009 (ip), vehicle: Klucel (hydroxypropylcellulose) (HPC) 90 % of control | dose: 300.0 mg/kg/injection, schedule: Q01DX009 (ip), vehicle: Klucel (hydroxypropylcellulose) (HPC) 90 % of control

N=C(N)c1ccc(C(=O)Oc2ccc([N+](=O)[O-])cc2)cc1
inactive: [16] 103 % of control | dose: 25.0 mg/kg/injection, schedule: Q04DX003 (ip), vehicle: saline with Tween-80 94 % of control | [17] 97 % of control | dose: 50.0 mg/kg/injection, schedule: Q04DX003 (ip), vehicle: saline with Tween-80 97 % of control | [8] 98 % of control and 92 % of control

CC(/C=C/c1ccccc1)=N\NC(=O)NN
inactive: [1] 91 % of control | [11] 89 % of control | [15] 89 % of control

O=[N+]([O-])c1ccc(C=Nc2ccc(OCc3ccccc3)cc2)s1
inactive: [3] 91 % of control | [5] 88 % of control | [7] 91 % of control

CC1=CC(=O)C(C)(C)C=C1
inactive: [12] 104 % of control | [8] 108 % of control | [13] 101 % of control | [9] 100 % of control | [14] 96 % of control

Cc1ccc(S(=O)(=O)N(C)c2cc(Cl)c(I)cc2Cl)cc1
inactive: [2] 97 % of control | [3] 93 % of control and 94 % of control | [4] 97 % of control | [5] 98 % of control | [6] 94 % of control | [7] 97 % of control and 98 % of control
